Laboratory results reported in PubChem BioAssay AID330 (DTP/NCI, 2004).
“And” between values parts separate entries of the source, which are not always exact repeats. Identical values can stand only once. Toxic doses and inconclusive results are not listed. The calls were made as follows: active = survival T/C of 150% or more; inactive = T/C below 125% in these data. Peptide text beside a SMILES is read from it.

System: P388 leukemia ip, CD2F1 mice, survival T/C
Assay: NCI In Vivo Anticancer Drug Screen. Data for tumor model P388 Leukemia (intraperitoneal) in CD2F1 (CDF1) mice
Conditions: endpoint: median survival time, higher = longer survival
Outline: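 Mice carrying the transplanted tumor received test compound or vehicle. Survival was recorded in each group, and the value is the treated-group measurement divided by that of the vehicle-treated control group.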

[1] = dose: 50.0 mg/kg/injection, schedule: Q01DX005 (ip), vehicle: saline
[2] = dose: 100.0 mg/kg/injection, schedule: Q01DX005 (ip), vehicle: saline
[3] = dose: 50.0 mg/kg/injection, schedule: Q04DX003 (ip), vehicle: saline with Tween-80
[4] = dose: 100.0 mg/kg/injection, schedule: Q04DX003 (ip), vehicle: saline with Tween-80
[5] = dose: 50.0 mg/kg/injection, schedule: Q01DX009 (ip), vehicle: saline with Tween-80
[6] = dose: 100.0 mg/kg/injection, schedule: Q01DX009 (ip), vehicle: saline with Tween-80
[7] = dose: 200.0 mg/kg/injection, schedule: Q01DX009 (ip), vehicle: saline with Tween-80
[8] = dose: 50.0 mg/kg/injection, schedule: Q01DX009 (ip), vehicle: Klucel (hydroxypropylcellulose) (HPC)
[9] = dose: 100.0 mg/kg/injection, schedule: Q01DX009 (ip), vehicle: Klucel (hydroxypropylcellulose) (HPC)
[10] = dose: 100.0 mg/kg/injection, schedule: Q01DX001 (ip), vehicle: saline with Tween-80
[11] = dose: 200.0 mg/kg/injection, schedule: Q01DX001 (ip), vehicle: saline with Tween-80
[12] = dose: 400.0 mg/kg/injection, schedule: Q01DX001 (ip), vehicle: saline with Tween-80
[13] = dose: 50.0 mg/kg/injection, schedule: Q01DX005 (ip), vehicle: saline with Tween-80
[14] = dose: 100.0 mg/kg/injection, schedule: Q01DX005 (ip), vehicle: saline with Tween-80
[15] = dose: 200.0 mg/kg/injection, schedule: Q01DX005 (ip), vehicle: saline with Tween-80

Measured: T/C

COc1ccc(C=C(C(=O)CCN(C)C)C(=O)CCN(C)C)cc1
inactive: [1] 105 % of control | [2] 100 % of control

O=C(CCl)c1cccnc1C(=O)O
inactive: dose: 25.0 mg/kg/injection, schedule: Q01DX009 (ip), vehicle: saline sonified 100 % of control | dose: 50.0 mg/kg/injection, schedule: Q01DX009 (ip), vehicle: saline sonified 100 % of control | dose: 100.0 mg/kg/injection, schedule: Q01DX009 (ip), vehicle: saline sonified 90 % of control

CC(=O)CC(C)=O.CCN(CC)CC[C-]=O.[Pd+2]
inactive: dose: 0.78 mg/kg/injection, schedule: Q04DX003 (ip), vehicle: propolene glycol 97 % of control | dose: 1.56 mg/kg/injection, schedule: Q04DX003 (ip), vehicle: propolene glycol 95 % of control | dose: 3.13 mg/kg/injection, schedule: Q04DX003 (ip), vehicle: propolene glycol 97 % of control | dose: 6.25 mg/kg/injection, schedule: Q04DX003 (ip), vehicle: propolene glycol 96 % of control | dose: 12.5 mg/kg/injection, schedule: Q04DX003 (ip), vehicle: other 123 % of control | dose: 12.5 mg/kg/injection, schedule: Q04DX003 (ip), vehicle: propolene glycol 91 % of control | dose: 25.0 mg/kg/injection, schedule: Q04DX003 (ip), vehicle: other 120 % of control

NC(N)=NCCCC(N)C(=O)NC(CCCN=C(N)N)C(=O)O (stereo not drawn) (H-Arg-Arg-OH; configuration not given here)
inactive: dose: 50.0 mg/kg/injection, schedule: Q01DX005 (ip), vehicle: Klucel (hydroxypropylcellulose) (HPC) 103 % of control | dose: 100.0 mg/kg/injection, schedule: Q01DX005 (ip), vehicle: Klucel (hydroxypropylcellulose) (HPC) 100 % of control | dose: 200.0 mg/kg/injection, schedule: Q01DX005 (ip), vehicle: Klucel (hydroxypropylcellulose) (HPC) 100 % of control

C=CCC1(C)C(=O)CCC1=O
inactive: dose: 60.0 mg/kg/injection, schedule: Q01DX005 (ip), vehicle: saline with Tween-80 110 % of control | dose: 120.0 mg/kg/injection, schedule: Q01DX005 (ip), vehicle: saline with Tween-80 102 % of control | dose: 240.0 mg/kg/injection, schedule: Q01DX005 (ip), vehicle: saline with Tween-80 98 % of control

COC(=O)C12OCC34C(CC5C(C)C6=CC(=O)OC6=CC5(C)C3C(O)C1O)OC(=O)C(OC(C)=O)C24 (configuration not stated)
inactive: dose: 18.37 mg/kg/injection, schedule: Q01DX005 (ip), vehicle: Klucel (hydroxypropylcellulose) (HPC) 106 % of control | dose: 36.75 mg/kg/injection, schedule: Q01DX005 (ip), vehicle: Klucel (hydroxypropylcellulose) (HPC) 115 % of control

CSc1nc(NC(C)C)nc(NC(C)C)n1
inactive: [3] 100 % of control | [4] 91 % of control

Clc1ccc2c(c1)C(c1ccccc1Cl)=NCC(SCCN1CCOCC1)=N2
inactive: dose: 60.0 mg/kg/injection, schedule: Q01DX005 (ip), vehicle: saline 107 % of control | dose: 120.0 mg/kg/injection, schedule: Q01DX005 (ip), vehicle: saline 101 % of control | dose: 240.0 mg/kg/injection, schedule: Q01DX005 (ip), vehicle: saline 112 % of control

CN(C)Cc1nc2sc3c(c2c(=O)[nH]1)CCCC3
inactive: [5] 106 % of control | [6] 108 % of control | [7] 103 % of control

CCOC(=O)Nc1cc(Cl)c2[nH]c(=O)[nH]c2n1
inactive: dose: 12.5 mg/kg/injection, schedule: Q01DX009 (ip), vehicle: other 103 % of control | dose: 25.0 mg/kg/injection, schedule: Q01DX009 (ip), vehicle: other 106 % of control | dose: 50.0 mg/kg/injection, schedule: Q01DX009 (ip), vehicle: other 100 % of control | dose: 100.0 mg/kg/injection, schedule: Q01DX009 (ip), vehicle: other 104 % of control | dose: 200.0 mg/kg/injection, schedule: Q01DX009 (ip), vehicle: other 100 % of control

CN=C(N)N/N=C/c1c2ccccc2c(Cl)c2ccccc12
inactive: dose: 25.0 mg/kg/injection, schedule: Q04DX002 (ip), vehicle: saline with Tween-80 114 % of control

COc1ccc(/C(=N/N)c2ccccc2)cc1
inactive: dose: 100.0 mg/kg/injection, schedule: Q04DX003 (ip), vehicle: Klucel (hydroxypropylcellulose) (HPC) 100 % of control | dose: 200.0 mg/kg/injection, schedule: Q04DX003 (ip), vehicle: Klucel (hydroxypropylcellulose) (HPC) 114 % of control

Cc1ccc2c(c1)sc1nnc(S(C)(=O)=O)n12
inactive: dose: 12.5 mg/kg/injection, schedule: Q01DX009 (ip), vehicle: Klucel (hydroxypropylcellulose) (HPC) 118 % of control | dose: 25.0 mg/kg/injection, schedule: Q01DX009 (ip), vehicle: Klucel (hydroxypropylcellulose) (HPC) 110 % of control | [8] 102 % of control and 118 % of control | [9] 111 % of control

c1ccc(C2=NN(c3ccccc3)C3(c4ccccc4)CCCN23)cc1 (configuration not stated)
inactive: [10] 108 % of control | [11] 97 % of control | [12] 95 % of control

Cc1c2oc3c(C)ccc(C(=O)NCCc4ccccc4)c3nc-2c(C(=O)NCCc2ccccc2)c(N)c1=O
inactive: dose: 50.0 mg/kg/injection, schedule: Q04DX003 (ip), vehicle: DMSO 92 % of control | dose: 100.0 mg/kg/injection, schedule: Q04DX003 (ip), vehicle: DMSO 91 % of control | dose: 200.0 mg/kg/injection, schedule: Q04DX003 (ip), vehicle: DMSO 90 % of control

NCc1cc(=O)[nH]o1
inactive: dose: 50.0 mg/kg/injection, schedule: Q01DX009 (ip), vehicle: saline 89 % of control | dose: 100.0 mg/kg/injection, schedule: Q01DX009 (ip), vehicle: saline 92 % of control

CCCCN=C1NS(=O)(=O)c2ccccc21
inactive: [13] 103 % of control | [14] 107 % of control | [15] 103 % of control

CCCCCCCCCCCCCCCCCCOP(=O)(CC(=O)NCc1cc(C(C)(C)C)c(O)c(C(C)(C)C)c1)OCCCCCCCCCCCCCCCCCC
inactive: dose: 12.5 mg/kg/injection, schedule: Q04DX003 (ip), vehicle: saline with Tween-80 96 % of control | dose: 25.0 mg/kg/injection, schedule: Q04DX003 (ip), vehicle: saline with Tween-80 101 % of control | [3] 92 % of control | [4] 86 % of control | dose: 200.0 mg/kg/injection, schedule: Q04DX003 (ip), vehicle: saline with Tween-80 100 % of control

CC(=O)OCc1c(COC(C)=O)c(-c2ccc(Cl)cc2)n2c1CCC2
inactive: [8] 118 % of control

NC1CC2CCCCC2CC1c1ccccc1 (configuration not stated)
inactive: dose: 100.0 mg/kg/injection, schedule: Q01DX001 (ip), vehicle: Klucel (hydroxypropylcellulose) (HPC) 91 % of control | dose: 200.0 mg/kg/injection, schedule: Q01DX001 (ip), vehicle: Klucel (hydroxypropylcellulose) (HPC) 97 % of control | dose: 400.0 mg/kg/injection, schedule: Q01DX001 (ip), vehicle: Klucel (hydroxypropylcellulose) (HPC) 96 % of control

[O-][n+]1c(-c2ccccc2)c(Cl)c(-c2ccccc2)n1O
inactive: dose: 1.5 mg/kg/injection, schedule: Q01DX005 (ip), vehicle: Klucel + Tween-80 99 % of control | dose: 3.0 mg/kg/injection, schedule: Q01DX005 (ip), vehicle: Klucel + Tween-80 100 % of control | dose: 6.0 mg/kg/injection, schedule: Q01DX005 (ip), vehicle: Klucel + Tween-80 96 % of control | dose: 60.0 mg/kg/injection, schedule: Q01DX005 (ip), vehicle: Klucel + Tween-80 98 % of control

CCOC(=O)c1cnn(CC(OCC)OCC)c1N
inactive: [10] 102 % of control | [11] 108 % of control | [12] 109 % of control

COC(=O)Nc1cn2ccc(Sc3ccccc3)cc2n1
inactive: [8] 103 % of control and 109 % of control | [9] 105 % of control and 122 % of control

CCN(CC)CCNC1=CC(=S)NC(C)(C)C1
inactive: dose: 25.0 mg/kg/injection, schedule: Q01DX009 (ip), vehicle: saline with Tween-80 103 % of control | [5] 94 % of control | [6] 106 % of control | [7] 94 % of control

CN1N=Nc2ccccc2C1(O)c1ccc(F)cc1 (configuration not stated)
inactive: [13] 104 % of control | [14] 104 % of control | [15] 107 % of control

CC1(C)CC2(C)OCCN2C(=S)N1 (configuration not stated)
inactive: [8] 100 % of control | [9] 90 % of control | dose: 200.0 mg/kg/injection, schedule: Q01DX009 (ip), vehicle: Klucel (hydroxypropylcellulose) (HPC) 89 % of control

CCCCCCCCN1COC2CCc3ccccc3C21 (configuration not stated)
inactive: [1] 100 % of control | [2] 101 % of control | dose: 200.0 mg/kg/injection, schedule: Q01DX005 (ip), vehicle: saline 100 % of control
